Results published in US8546421B1, “Oncogenic-RAS-signal dependent lethal compounds” (The Trustees of Columbia University in the City of New York, priority 2007, dated 2013).

How the values were obtained:
SK-MEL-2 = assay: NCI60 anti-cancer screening
K-562 = assay: NCI60 anti-cancer screening
M14 = assay: NCI60 anti-cancer screening
OVCAR-3 [1] = settings: Ovarian Cancer
RPMI-8226 = assay: NCI60 anti-cancer screening
SNB-75 = assay: NCI60 anti-cancer screening
UACC-257 = assay: NCI60 anti-cancer screening
ACHN = assay: NCI60 anti-cancer screening
TK-10 = assay: NCI60 anti-cancer screening
NCI/ADR-RES = assay: NCI60 anti-cancer screening
[2] = tested on: A549, Calu-1, PaCa, and HCT116 cells; assay: Alamar blue assay in KRAS-mutation-harboring cancer cells; format: cell-based, human
Method: A549, Calu-1, HCT116 and MIA PaCa-2 cell lines have an oncogenic mutation in the KRAS gene. Compounds which tested positive in the oncogenic HRAS primary screen were also tested for their selectivity against oncogenic KRAS which is more commonly mutated in human cancers.

HL-60(TB) = assay: cells; settings: Homo sapiens
OVCAR-3 [3] = assay: cells; settings: Homo sapiens
[4] = tested on: BJ-TERT/LT/ST/RAS^V12 cells; assay: Counter screening with biologically active compounds; format: cell-based, human
Method: Biologically active compounds listed in Table 1 were dissolved in BJ medium at 10× final concentration and aliquoted into eppendorf tubes. 100 μL of each 10× solution was transferred to column 1 to column 12 or column 13 to column 24 of a single row in a 384-well daughter plate. This plate was designated as ‘10× biologically active plate’. In order to prepare lethal compound solution, Erastin and compounds 3, 6, 27, and 36 were dissolved in BJ medium at a concentration of 100 μg/mL, 400 μg/mL, 400 μg/mL, 100 μg/mL, and 200 μg/mL, respectively. Empty daughter plates were filled with 50 μL BJ media except for columns 5 and 13 where 100 μL of each lethal solution was transferred. After lethal solution transfer, 2-fold dilution series across columns 5 to 12 and columns 13 to 20 was made by transferring 50 μL compound solution to the next column successively (8-point dilution series), with mixing. These five plates were each designated ‘10× lethal plate’. Five assay plates were prepared by seeding 4,000 BJ-TERT/LT/ST/RAS^V12 cells per well in 32 μL of growth media in black, clear bottom 384-well plates. Cells in assay plates were first treated with biologically active compounds by transferring 4 μL from the 10× inhibitor plate. Cells were then treated with each lethal compound in a 2-fold dilution series by transferring 4 μL solution from each 10× lethal plate. […] Percent growth inhibition (% GI) was calculated by the following formula using fluorescence intensity values: % GI=100*(1−(X−N)/([…])) wherein X is the fluorescent intensity value measured at 590 nm for cells treated with biologically active compound and lethal compound; N is the fluorescent intensity value measured at 590 nm for a control containing no cells (i.e. biologically active compound in growth media); and P is the fluorescent intensity value measured at 590 nm for a control containing no lethal compound (i.e., cells treated with biologically active compound). Counter Screening with Iron Chelators

HOP-92 = assay: NCI60 anti-cancer screening
PC-3 = assay: NCI60 anti-cancer screening
Calu-1 = assay: Alamar Blue assay, additional cell lines; format: cell-based, human; settings: Calu-1, Non-small cell lung carcinoma, Alamar Blue
Excerpt: (§1) The results of this additional testing are summarized in Tables 7-10 (no additional cell lines were identified as sensitive for Compound 3). […] The tumor type, cell line, maximum percentage inhibition, the concentration of compound required to inhibit cell growth by 50%, and RAS mutation (if any) are also summarized.

PaCa-2 = assay: Alamar Blue assay, additional cell lines; format: cell-based, human; settings: Pancreatic Cancer
Excerpt: as §1

BT-549 = assay: NCI60 anti-cancer screening
SF-539 = assay: NCI60 anti-cancer screening
A498 = assay: NCI60 anti-cancer screening

## C=C1CCC2C(C)(C)CCC[C@]2(C)C1CC/C(C)=C\CC/C(C)=N/NC(N)=S (stereo partly drawn) [Compound 36]
SK-MEL-2; Homo sapiens, SK-MEL-2
  GI50: 297 nM
SK-MEL-2; Homo sapiens, SK-MEL-2, read-out: LC 50%
  CC50: 4930 nM
SK-MEL-2; SK-MEL-2, Melanoma
  GI 100%: 1.01 µM
K-562; Homo sapiens, K562
  GI50: 267 nM
K-562; Homo sapiens, K562, read-out: LC 50%
  CC50: 3510 nM
K-562; K-562, Leukemia
  GI 100%: 1.08 µM
M14; Homo sapiens, M14
  GI50: 384 nM
M14; Homo sapiens, M14, read-out: LC 50%
  CC50: 4800 nM
M14; M14, Melanoma
  GI 100%: 1.59 µM
OVCAR-3 [1]
  GI 100%: 0.804 µM
RPMI-8226; Homo sapiens, RPMI-8226
  GI50: 194 nM
RPMI-8226; Homo sapiens, RPMI-8226, read-out: LC 50%
  CC50: 6980 nM
RPMI-8226; RPMI-8226, Leukemia
  GI 100%: 0.889 µM
SNB-75; Homo sapiens, SNB-75
  GI50: 372 nM
SNB-75; Homo sapiens, SNB-75, read-out: LC 50%
  CC50: 4300 nM
SNB-75; SNB-75, CNS Cancer
  GI 100%: 1.26 µM
UACC-257; Homo sapiens, UACC-257
  GI50: 1260 nM
UACC-257; Homo sapiens, UACC-257, read-out: LC 50%
  CC50: 6990 nM
UACC-257; UACC-257, Melanoma
  GI 100%: 2.97 µM
ACHN; Homo sapiens
  GI50: 366 nM
ACHN; Homo sapiens, read-out: LC 50%
  CC50: 3780 nM
ACHN; Renal Cancer
  GI 100%: 1.43 µM
TK-10; Homo sapiens, TK-10
  GI50: 296 nM
TK-10; Homo sapiens, TK-10, read-out: LC 50%
  CC50: 3470 nM
TK-10; TK-10, Renal Cancer
  GI 100%: 1.08 µM
NCI/ADR-RES; Breast Cancer
  GI 100%: 2.34 µM
NCI/ADR-RES; Homo sapiens
  GI50: 1040 nM
NCI/ADR-RES; Homo sapiens, read-out: LC 50%
  CC50: 5270 nM
[2]
  activity in KRAS-mutation-harboring cancer cells (in words): active
HL-60(TB); HL-60
  GI50: 163 nM
HL-60(TB); HL-60, read-out: LC 50%
  CC50: 2620 nM
OVCAR-3 [3]; OVCAR-3
  GI50: 204 nM
OVCAR-3 [3]; OVCAR-3, read-out: LC 50%
  CC50: 4200 nM
[4]; 36 bioactive compounds of Table 1, 24 hours, alamar blue
  biologically active compounds that suppress compound-induced cell death: iron chelators (L-Mim and DFOM) and a protein synthesis inhibitor (cycloheximide) were effective
[4]; U0126 10 uM
  effect of MEK1/2 inhibitor (U0126) on compound-induced cell death: inability of MEK1/2 inhibitors to suppress
HOP-92; HOP-92, Non-small cell lung carcinoma
  GI 100%: 1.52 µM
HOP-92; Homo sapiens, HOP-92
  GI50: 479 nM
HOP-92; Homo sapiens, HOP-92, read-out: LC 50%
  CC50: 3960 nM
PC-3; Homo sapiens, PC-3
  GI50: 548 nM
PC-3; Homo sapiens, PC-3, read-out: LC 50%
  CC50: 4260 nM
PC-3; PC-3, Prostate Cancer
  GI 100%: 1.82 µM
Calu-1
  Maximum Inhibition %: 100%
Calu-1; Homo sapiens
  GI50: 300 nM
PaCa-2; Homo sapiens
  GI50: 1500 nM
PaCa-2
  Maximum Inhibition %: 100%
BT-549; BT-549, Breast Cancer
  GI 100%: 1.3 µM
BT-549; Homo sapiens, BT-549
  GI50: 302 nM
BT-549; Homo sapiens, BT-549, read-out: LC 50%
  CC50: 4070 nM
SF-539; Homo sapiens, SF-539
  GI50: 191 nM
SF-539; Homo sapiens, SF-539, read-out: LC 50%
  CC50: 638 nM
SF-539; SF-539, CNS Cancer
  GI 100%: 0.349 µM
A498; A498, Renal Cancer
  GI 100%: 1.29 µM
A498; Homo sapiens, A498
  GI50: 268 nM
A498; Homo sapiens, A498, read-out: LC 50%
  CC50: 3850 nM
